The source of these data is patent US9757477B2, “Imaging brown adipose tissue with curcumin derivatives” (The General Hospital Corporation, priority 2013, dated 2017).

Where “and” joins values, the source holds several entries; their conditions need not be identical. Identical values can stand only once.

Assay [1] concerns interscapular BAT. Nature of the assay: Top-down whole-organism NIR fluorescence screening of dyes (ROI1/ROI2 contrast). In kind it is in vivo, nude mice. As to conditions: for visible contrast around the interscapular BAT area: in vivo NIR images; for Ratio AVERAGE (mean ratio ROI1/ROI2): i.v., mean of three filter pairs, hit threshold >1.10. How it is done:
38 fluorescent dyes from commercial resources and from the inventors' laboratory were screened. Dyes with excitation range of 550-745 nm, emission range of 600-840 nm, and with molecular weight of less than 700 Da (except Cy5.5) (representative dyes are listed in FIG. 1d and the full list is shown in Table 2). Their hydrophobicities were not determined. The library was screened by intravenous tail injection of compounds into nude mice (10μg/mouse). Each dye was imaged with three optimized excitation/emission filter-pairs, and images at one hour after i.v. injection were acquired.
Top-down whole organism screening was performed as follows. Nude mice (nu/nu COX7) were purchased from Massachusetts General Hospital and Balb/c mice were from Jackson Laboratory. All animal experimental procedures were approved by the Institutional Animal Care and Use Committee (IACUC) at Massachusetts General Hospital. Dye stock solutions were prepared in DMSO. The final injection solution (0.1 mg/ml) was freshly prepared in a mixed solution of 20% DMSO, 20% Cremophor EL and 60% saline. Nude mice (n=5) were injected with a 100 μL dye solution via tail vein. For each imaging session, mice were anesthetized with a mixture of oxygen and isoflurane for 5 minutes, and then positioned into the imaging chamber of IVIS® Spectrum in vivo pre-clinical imaging system. Images were acquired at one-hour post-injection using sequence imaging with three excitation/emission filter pairs for each dye.
Hits selection was performed as follows. Hits from cell- or protein-based screening are usually selected by setting certain threshold. In the case of the top-down imaging screening, two methods were used (threshold and visible contrast) to select hits. First, three images obtained with three excitation/emission pairs were selected for each dye. These ex/em pairs were selected from the closest excitation and emission wavelengths of the tested dyes. For instance, 605/660 nm, 605/680 nm, 640/680 nm were selected for image acquisition of Nile blue (625/660 nm). The quantification of contrast for each image was calculated as a ratio of two ROIs (region of interest). ROI1 reflected the average signal from interscapular BAT and ROI2 was the average signal of the area that included BAT and white adipose tissue (WAT) around the interscapular site (FIG. 1b, left). The averaged fluorescent signal of ROI was used instead of the total signal, because the total signal depends on the area of ROI, whereas the averaged signal reflects the density of signal. The ratio of ROI1/ROI2 could reflect the signal/noise ratio of the tested probe, and could also reflect the selectivity of the probe for BAT over WAT. For each dye, three ROI1/ROI2 ratios obtained with the three filter pairs were calculated. The mean of the ratios was used as the threshold. If the mean ratio was >1.10, the dye was selected as a potential positive hit (FIG. 1c). Since the contrast of a dye in the top-down screening is in the visible range, the visible contrast around the interscapular BAT area was also tested for the hits with the mean ratio of >1.10. If both mean ratio and the visible contrast were positive, then the hit was subjected to re-testing procedure to validate its reliability as described below.
Although CRANAD-2 and CRANAD-3 were able to provide certain contrast for BAT in vivo, their excitation and emission wavelengths were still shorter than required for an ideal NIR imaging probe (both excitation and emission >640 nm). […] To seek better probes, a sub-library was synthesized based on the structures of the lead probes CRANAD-2 and -3. CRANAD-6, -19, -22, -24, -26, -32 and -43 were synthesized and tested (images and chemical structures, excitation and emission spectra are shown in FIG. 9 a-e). […] However, the ROI1/ROI2 ratio of CRANAD-22 was not improved (FIG. 9c).

For assay [2], the system named is brown adipose cells. Briefly: Ex vivo histology of dissected BAT slices. Also on record: species or system mice. The conditions noted are these: fluorescence microscopy. How it is done:
Next the time course of CRANAD-2 and CRANAD-3 accumulation in BAT area was investigated. […] Similarly, the signal of CRANAD-3 reached the uptake peak around one hour, and then gradually washed out (FIG. 8c-d). Accumulation of CRANAD-2 and -3 in BAT was further confirmed with ex vivo histology of the dissected BAT slices, performed as follows. The dissected BAT was fixed with 4% formalin at 4° C. overnight, and then embedded into OCT. BAT tissue was cut into 7 micron thickness slices, washed with PBS buffer, and co-stained with DAPI (Vectra Shield, Vector Lab, Burlingame, Calif.). Images were acquired with fast exposure to capture the dye signal in the oil droplets. To outline cell membrane cell autofluorescence was captured with long exposure after image of the dye signal from oil droplets was already acquired. To further validate the capacity of CRANAD-29 for BAT labeling, ex vivo histological microscopic imaging with CRANAD-29 was conducted. […] Gold standard H&E staining also provided similar images (FIG. 10a). […] The injection dose of CRANAD-29 was optimized, and the fluorescence signal reached its plateau at 0.4 mg/kg (FIG. 11). In the following studies, 0.1 mg/kg dose was used.

The test system of assay [3] is interscapular BAT. Nature of the assay: Re-testing of hits with stepwise dissection and NIR imaging. In kind it is in vivo, mice. As for the experimental part:
Like protein/cell-based screening, hit re-testing experiments were conducted to validate the reliability of this approach. CRANAD-2, -3, LDS 722 and Rhodamine 640 were subjected to re-testing by repeating the above imaging procedure. Images were acquired one hour after probe injection.
Next, stepwise dissection and imaging were performed to track the source of the fluorescence contrast at the interscapular site. Skin and the thin WAT layer that covers BAT were first removed, and then BAT was dissected, and NIR images were captured at each step. […] The signal contribution from BAT (R(BAT)) was roughly estimated using the ratio of fluorescence signals acquired after (F(BAT)) and before (F(intact)) the first step dissection of skin and WAT.

Where [4] appears, read: nude mice, one hour post-injection.

Regarding `CN(C)c1ccc(/C=C/C2=CC(=C/C=C3C=CC(=[N+](C)C)C=C3)/O[B-](F)(F)O2)cc1` [CRANAD-2], the “visible contrast around the interscapular BAT area” value in assay [1] is “best contrast and clear triangular contour”. The “Ratio No 1 (ROI1/ROI2 average fluorescence intensity)” value in assay [1] (nude mice, 10 μg/mouse i.v., one hour post-injection, first excitation/emission filter pair) turned out to be 1.31E+00. Further, in assay [1] (nude mice, 10 μg/mouse i.v., one hour post-injection, second excitation/emission filter pair), the “Ratio No 2 (ROI1/ROI2 average fluorescence intensity)” value is listed as 1.26E+00. Also, in assay [1] (nude mice, 10 μg/mouse i.v., one hour post-injection, third excitation/emission filter pair), the “Ratio No 3 (ROI1/ROI2 average fluorescence intensity)” value was determined as 1.26E+00. Further, the “Ratio AVERAGE (mean ratio ROI1/ROI2)” value in assay [1] (setting [4]) was 1.28 and 1.28E+00. The “labeling in ex vivo histology of BAT slices” value in assay [2] is on record as “labeled oil droplets in brown adipose cells”. Also, in assay [3] (fluorescence after vs before dissection of skin and WAT, roughly estimated), the “R(BAT), signal contribution from BAT, F(BAT)/F(intact)” value was “about 0.26”. In assay [3] (images one hour after probe injection), the “contrast among the re-tested dyes” value is on record as “highest contrast”. Moreover, in assay [3] (stepwise dissection), the “fluorescence signal from BAT (before vs after BAT removal)” value is recorded as “able to label BAT” and the “selectivity for BAT (over WAT)” value is reported as “low”.

For `F[B-]1(F)OC(/C=C/c2cc3c4c(c2)CCCN4CCC3)=CC(/C=C/c2cc3c4c(c2)CCCN4CCC3)=[O+]1` [CRANAD-29], the “visible contrast around the interscapular BAT area” value in assay [1] is “excellent contrast and a very clear contour of BAT”. In assay [1] (setting [4]), the “Ratio AVERAGE (mean ratio ROI1/ROI2)” value worked out at 1.36. In assay [2], the “labeling in ex vivo histology of BAT slices” value is reported as “capable of labeling BAT cells”. In assay [3] (stepwise dissection), the “F(BAT)/F(intact) ratio compared with CRANAD-2 and -3” value was “much higher”; the “selectivity for BAT (over WAT)” value was “excellent selectivity”.
